Target: T1, USP7 (Homo sapiens, UniProt Q93009)
T1 construct: USP7, construct USP7 (208-1102) 6*His, Viva Biotech; 6xHis (C); purchased Viva Biotech
Test: USP7 Assay A (Ubitquin-Rhodamine 110 Assay)
Assay type: biochemical
Conditions: USP7 activity in USP7 assay A and B (table does not say which assay per compound); read-out: USP7_IC50
Method in brief: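 Enzyme and compound sat together for 30 min before Ub-Rh110 was added, in buffer of 20 mM Tris-HCl (pH 8.0), 1 mM GSH, 0.03% BGG and 0.01% Triton X-100.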

T1 sequence (Q93009 208-1102): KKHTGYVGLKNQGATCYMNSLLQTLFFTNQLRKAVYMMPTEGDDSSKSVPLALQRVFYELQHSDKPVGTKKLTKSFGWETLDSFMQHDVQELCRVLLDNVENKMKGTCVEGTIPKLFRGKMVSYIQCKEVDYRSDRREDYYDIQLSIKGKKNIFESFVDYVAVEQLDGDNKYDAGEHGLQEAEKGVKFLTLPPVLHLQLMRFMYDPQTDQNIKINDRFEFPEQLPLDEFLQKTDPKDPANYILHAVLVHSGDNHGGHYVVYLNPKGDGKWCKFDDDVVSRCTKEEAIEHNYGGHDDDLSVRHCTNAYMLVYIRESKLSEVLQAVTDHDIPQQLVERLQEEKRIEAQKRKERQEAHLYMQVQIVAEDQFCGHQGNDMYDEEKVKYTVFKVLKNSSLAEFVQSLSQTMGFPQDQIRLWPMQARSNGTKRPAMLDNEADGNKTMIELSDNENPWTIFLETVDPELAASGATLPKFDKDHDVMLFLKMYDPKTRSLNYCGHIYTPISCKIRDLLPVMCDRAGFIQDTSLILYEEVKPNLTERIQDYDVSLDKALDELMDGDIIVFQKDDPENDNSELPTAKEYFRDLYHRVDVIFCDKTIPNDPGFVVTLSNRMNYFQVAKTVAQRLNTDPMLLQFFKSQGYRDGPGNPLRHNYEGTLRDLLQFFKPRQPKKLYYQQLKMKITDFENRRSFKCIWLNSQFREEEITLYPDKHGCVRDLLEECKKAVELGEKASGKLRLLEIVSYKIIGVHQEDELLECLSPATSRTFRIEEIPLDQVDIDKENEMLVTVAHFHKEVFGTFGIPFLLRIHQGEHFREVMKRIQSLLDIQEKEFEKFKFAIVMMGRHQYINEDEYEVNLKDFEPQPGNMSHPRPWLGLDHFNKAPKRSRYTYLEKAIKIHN

`Cc1cnn(-c2ccc(-n3ncc4c(=O)n(CC5(O)CCN(C(=O)c6cnc(C7CC7)o6)CC5)cnc43)cc2)c1` [Compound I-779] and `O=C(c1cnc(C2CC2)o1)N1CCC(O)(Cn2cnc3c(cnn3-c3ccc(-n4cccn4)cc3)c2=O)CC1` [Compound I-780] cannot be ordered by IC50: less than 200 nM for the first, less than 200 nM for the second.

First: CC1(C(=O)N2CCC(O)(Cn3cnc4c(cnn4-c4ccc(-n5cccn5)cc4)c3=O)CC2)CC1 [Compound I-781]
Second: CC1(C(=O)N2CCC(O)(Cn3cnc4c(cnn4-c4ccc(-n5cccn5)cc4)c3=O)CC2)CCC1 [Compound I-782]
The IC50 of the first is higher: 200 to 1000 nM for the first, less than 200 nM for the second.

First: C[C@@]1(O)CCN(c2ccc(-n3ncc4c(=O)n(CC5(O)CCN(C(=O)C6CCCCC6)CC5)cnc43)cc2)C1 [Compound I-783]
Second: C[C@@H](CC(=O)N1CCC(O)(Cn2cnc3c(cnn3-c3ccc(N4CC[C@](C)(O)C4)cc3)c2=O)CC1)n1cccn1 [Compound I-837]
The IC50 of the first is higher: 200 to 1000 nM for the first, less than 200 nM for the second.

Compared with `O=C(C[C@@H](C(F)F)n1ccc(F)n1)N1CCC(O)(Cn2cnc3c(cnn3-c3ccc(N4CC5CC5C4)cc3)c2=O)CC1` (stereo partly drawn) [Compound I-784], `O=C(C[C@H](C(F)F)n1ccc(F)n1)N1CCC(O)(Cn2cnc3c(cnn3-c3ccc(N4CC5CC5C4)cc3)c2=O)CC1` (stereo partly drawn) [Compound I-785] is higher in IC50: less than 200 nM for the first, 200 to 1000 nM for the second.

First: CC1(C(=O)N2CCC(O)(Cn3cnc4c(cnn4-c4ccc(NC5CCC(F)(F)CC5)cc4)c3=O)CC2)CC1 [Compound I-786]
Second: O=C(c1cnc(C2CC2)o1)N1CCC(O)(Cn2cnc3c(cnn3-c3ccc(OC4CCC(F)(F)CC4)cc3)c2=O)CC1 [Compound I-817]
The IC50 of the first is higher: 200 to 1000 nM for the first, less than 200 nM for the second. The second is the more potent here.

Compared with `O=C(C[C@H](C(F)F)n1ccc(F)n1)N1CCC(O)(Cn2cnc3c(cnn3-c3cccc(N4CCOCC4)c3)c2=O)CC1` [Compound I-788], `O=C(C[C@@H](C(F)F)n1ccc(F)n1)N1CCC(O)(Cn2cnc3c(cnn3-c3cccc(N4CCOCC4)c3)c2=O)CC1` [Compound I-789] is lower in IC50: 1000 to 10000 nM for the first, less than 200 nM for the second.

Compared with `O=C(C[C@@H](C(F)F)n1ccc(F)n1)N1CCC(O)(Cn2cnc3c(cnn3-c3cccc(N4CC5CC5C4)c3)c2=O)CC1` (stereo partly drawn) [Compound I-790], `O=C(C[C@H](C(F)F)n1ccc(F)n1)N1CCC(O)(Cn2cnc3c(cnn3-c3cccc(N4CC5CC5C4)c3)c2=O)CC1` (stereo partly drawn) [Compound I-791] is higher in IC50: less than 200 nM for the first, 200 to 1000 nM for the second.

Compared with `CN1CCN(c2cccc(-n3ccc4c(=O)n(CC5(O)CCN(C(=O)C[C@H](C(F)F)n6cccn6)CC5)cnc43)c2)CC1` [Compound I-792], `CN1CCN(c2cccc(-n3ccc4c(=O)n(CC5(O)CCN(C(=O)C[C@@H](C(F)F)n6cccn6)CC5)cnc43)c2)CC1` [Compound I-793] is lower in IC50: 200 to 1000 nM for the first, less than 200 nM for the second. The second is the more potent here.

Compared with `Cn1nccc1O[C@H]1CC[C@H](C(=O)N2CCC(O)(Cn3cnc4c(ccn4-c4ccc(F)cc4)c3=O)CC2)CC1` [Compound I-794], `O=C(c1cnc(C2CC2)o1)N1CCC(O)(Cn2cnc3c(ccn3-c3ccc(F)cc3)c2=O)CC1` [Compound I-849] is lower in IC50: 200 to 1000 nM for the first, less than 200 nM for the second.

First: Cc1ccc(-n2ncc3c(=O)n(CC4(O)CCN(C(=O)C[C@H](C(F)F)n5ccc(F)n5)CC4)cnc32)cc1 [Compound I-796]
Second: Cc1ccc(-n2ncc3c(=O)n(CC4(O)CCN(C(=O)C[C@@H](C(F)F)n5ccc(F)n5)CC4)cnc32)cc1 [Compound I-797]
The IC50 of the first is lower: less than 200 nM for the first, 1000 to 10000 nM for the second.

`O=C(c1cnn(C2CC2)c1)N1CCC(O)(Cn2cnc3c(cnn3-c3ccc(C4CC4)cc3)c2=O)CC1` [Compound I-798] and `O=C(c1cnc(C2CC2)o1)N1CCC(O)(Cn2cnc3c(cnn3-c3ccc(C4CCC4)cc3)c2=O)CC1` [Compound I-847] fall in the same range of IC50: 200 to 1000 nM for the first, 200 to 1000 nM for the second.

`Cc1ncc(C(=O)N2CCC(O)(Cn3cnc4c(cnn4-c4ccc(C5CC5)cc4)c3=O)CC2)o1` [Compound I-799] and `Cc1ncc(C(=O)N2CCC(O)(Cn3cnc4c(cnn4-c4ccc(C5CCC5)cc4)c3=O)CC2)o1` [Compound I-846] fall in the same range of IC50: 200 to 1000 nM for the first, 200 to 1000 nM for the second.

First: Cc1cc(N[C@H]2CC[C@H](C(=O)N3CCC(O)(Cn4cnc5c(cnn5-c5ccc(F)cc5)c4=O)CC3)CC2)no1 [Compound I-806]
Second: Cc1cc(N[C@H]2CC[C@@H](C(=O)N3CCC(O)(Cn4cnc5c(cnn5-c5ccc(F)cc5)c4=O)CC3)CC2)no1 [Compound I-807]
The IC50 of the first is lower: 200 to 1000 nM for the first, 1000 to 10000 nM for the second.

First: CN1CC(O)(COc2ccc(-n3ncc4c(=O)n(CC5(O)CCN(C(=O)c6ccc(F)cc6)CC5)cnc43)cc2)C1 [Compound I-816]
Second: O=C(c1ccc(F)cc1)N1CCC(O)(Cn2cnc3c(cnn3-c3ccc(-n4ncc5c4CCOC5)cc3)c2=O)CC1 [Compound I-820]
The IC50 of the first is lower: less than 200 nM for the first, 200 to 1000 nM for the second. The first is the more potent here.

Compared with `CN1CCN(c2ccn(-c3ccc(-n4ncc5c(=O)n(CC6(O)CCN(C(=O)C7CC7)CC6)cnc54)cc3)n2)CC1` [Compound I-818], `O=C(C1CC1)N1CCC(O)(Cn2cnc3c(cnn3-c3ccc(-n4cc(N5CCOCC5)cn4)cc3)c2=O)CC1` [Compound I-819] is higher in IC50: less than 200 nM for the first, 200 to 1000 nM for the second. The first is the more potent here.

First: O=C(C[C@H](C(F)F)n1cccn1)N1CCC(O)(Cn2cnc3c(cnn3-c3ccc(N4CCCCC4)cc3)c2=O)CC1 [Compound I-821]
Second: O=C(C[C@@H](C(F)F)n1cccn1)N1CCC(O)(Cn2cnc3c(cnn3-c3ccc(N4CCCCC4)cc3)c2=O)CC1 [Compound I-822]
The IC50 of the first is higher: 1000 to 10000 nM for the first, 200 to 1000 nM for the second.

`CN1CCN(c2ccc(-n3ncc4c(=O)n(CC5(O)CCN(C(=O)CC(C(F)F)n6cccn6)CC5)cnc43)cc2)CC1` (stereo not drawn) [Compound I-825] and `CN1CCN(c2ccc(-n3ncc4c(=O)n(CC5(O)CCN(C(=O)C[C@H](C(F)F)n6cccn6)CC5)cnc43)cc2)CC1` [Compound I-826] cannot be ordered by IC50: less than 200 nM for the first, less than 200 nM for the second.

First: CN1CCN(c2cccc(-n3ncc4c(=O)n(CC5(O)CCN(C(=O)C[C@H](C(F)F)n6cccn6)CC5)cnc43)c2)CC1 [Compound I-829]
Second: CN1CCN(c2cccc(-n3ncc4c(=O)n(CC5(O)CCN(C(=O)C[C@@H](C(F)F)n6cccn6)CC5)cnc43)c2)CC1 [Compound I-830]
The IC50 of the first is lower: less than 200 nM for the first, 200 to 1000 nM for the second.

`C=CC(=O)N1CCC1C(=O)N1CCC(O)(Cn2cnc3c(cnn3-c3cccc(N4CCN(C)CC4)c3)c2=O)CC1` (stereo not drawn) [Compound I-831] and `C=CC(=O)N1CCC1C(=O)N1CCC(O)(Cn2cnc3c(cnn3-c3ccc(N4CCN(C)CC4)cc3)c2=O)CC1` (stereo not drawn) [Compound I-832] cannot be ordered by IC50: less than 200 nM for the first, less than 200 nM for the second.

First: C[C@]1(O)CCN(c2ccc(-n3ncc4c(=O)n(CC5(O)CCN(C(=O)C[C@H](C(F)F)n6cccn6)CC5)cnc43)cc2)C1 [Compound I-833]
Second: C[C@@]1(O)CCN(c2ccc(-n3ncc4c(=O)n(CC5(O)CCN(C(=O)C[C@H](C(F)F)n6cccn6)CC5)cnc43)cc2)C1 [Compound I-834]
The IC50 of the first is lower: less than 200 nM for the first, 1000 to 10000 nM for the second. The first is the more potent here.

First: C[C@]1(O)CCN(c2ccc(-n3ncc4c(=O)n(CC5(O)CCN(C(=O)C[C@@H](C(F)F)n6cccn6)CC5)cnc43)cc2)C1 [Compound I-835]
Second: C[C@@]1(O)CCN(c2ccc(-n3ncc4c(=O)n(CC5(O)CCN(C(=O)C[C@@H](C(F)F)n6cccn6)CC5)cnc43)cc2)C1 [Compound I-836]
The IC50 of the first is lower: less than 200 nM for the first, 1000 to 10000 nM for the second. The first is the more potent here.

Compared with `C[C@@H](CC(=O)N1CCC(O)(Cn2cnc3c(cnn3-c3ccc(N4CC[C@@](C)(O)C4)cc3)c2=O)CC1)n1cccn1` [Compound I-838], `C[C@H](CC(=O)N1CCC(O)(Cn2cnc3c(cnn3-c3ccc(N4CC[C@](C)(O)C4)cc3)c2=O)CC1)n1cccn1` [Compound I-839] is lower in IC50: 1000 to 10000 nM for the first, less than 200 nM for the second. The second is the more potent here.

Compared with `C[C@H](CC(=O)N1CCC(O)(Cn2cnc3c(cnn3-c3ccc(N4CC[C@@](C)(O)C4)cc3)c2=O)CC1)n1cccn1` [Compound I-840], `O=C(C[C@H](C(F)F)n1cccn1)N1CCC(O)(Cn2cnc3c(cnn3-c3ccc(CN4CCC4)cc3)c2=O)CC1` [Compound I-855] is lower in IC50: 1000 to 10000 nM for the first, less than 200 nM for the second.

`CNC1CCN(c2ccc(-c3ccc(-n4ncc5c(=O)n(CC6(O)CCN(C(=O)C7CC7)CC6)cnc54)cc3)cn2)C1` (stereo not drawn) [Compound I-845] and `O=C(C1CCC(Oc2ccccn2)CC1)N1CCC(O)(Cn2cnc3c(cnn3-c3ccc(CO)cc3)c2=O)CC1` (stereo not drawn) [Compound I-852] cannot be ordered by IC50: less than 200 nM for the first, less than 200 nM for the second.

`Cc1cc2c(=O)n(CC3(O)CCN(C(=O)c4cnc(C5CC5)o4)CC3)cnc2n1-c1ccc(F)cc1` [Compound I-850] and `O=C(C1CCC(Oc2ccccn2)CC1)N1CCC(O)(Cn2cnc3c(cnn3-c3ccc(CO)cc3)c2=O)CC1` (stereo not drawn) [Compound I-853] fall in the same range of IC50: 200 to 1000 nM for the first, 200 to 1000 nM for the second.

Same assay, conditions: USP7 assay A and B (table does not say which assay per compound); read-out: USP7_IC50

`C#CC(=O)N1CC[C@H]1C(=O)N1CCC(O)(Cn2cnc3c(cnn3-c3ccc(F)cc3)c2=O)CC1` [Compound I-803] and `O=C(C1CC1)N1CCC(O)(Cn2cnc3c(cnn3-c3ccc(C4CCNCC4)cc3)c2=O)CC1` [Compound I-843, 5-((1-(cyclopropanecarbonyl)-4-hydroxypiperidin-4-yl)methyl)-1-(4-(piperidin-4-yl)phenyl)-1H-pyrazolo[3,4-d]pyrimidin-4(5H)-one] fall in the same range of IC50: 200 to 1000 nM for the first, 200 to 1000 nM for the second.

`C=CS(=O)(=O)N[C@H](Cc1ccccc1)C(=O)N1CCC(O)(Cn2cnc3c(cnn3-c3ccccc3)c2=O)CC1` [Compound I-814] and `CN(C)CCOc1cc(-n2ncc3c(=O)n(CC4(O)CCN(C(=O)C5CC5)CC4)cnc32)ccc1-c1ccccc1` [Compound I-856] fall in the same range of IC50: 200 to 1000 nM for the first, 200 to 1000 nM for the second.

`CN(C)CCN(C)c1cccc(-n2ncc3c(=O)n(CC4(O)CCN(C(=O)c5ccc(F)cc5)CC4)cnc32)c1` [Compound I-823] and `O=C(c1ccc(F)cc1)N1CCC(O)(Cn2cnc3c(cnn3-c3ccc(F)c(N4CCNCC4)c3)c2=O)CC1` [Compound I-824] fall in the same range of IC50: 200 to 1000 nM for the first, 200 to 1000 nM for the second.

`O=C(C1CC1)N1CCC(O)(Cn2cnc3c(cnn3-c3ccc(-c4ccc(O[C@H]5CCNC5)cc4)cc3)c2=O)CC1` [Compound I-841] and `O=C(C1CC1)N1CCC(O)(Cn2cnc3c(cnn3-c3ccc(-c4ccc(O[C@@H]5CCNC5)cc4)cc3)c2=O)CC1` [Compound I-842] fall in the same range of IC50: 200 to 1000 nM for the first, 200 to 1000 nM for the second.

First: CN1CCN(c2ccc(-c3ccc(-n4ncc5c(=O)n(CC6(O)CCN(C(=O)C7CC7)CC6)cnc54)cc3)cc2)CC1 [Compound I-844]
Second: O=C(c1ccc(OC(F)F)cc1)N1CCC(O)(Cn2cnc3c(cnn3-c3ccc(CO)cc3)c2=O)CC1 [Compound I-851]
The IC50 of the first is lower: less than 200 nM for the first, 200 to 1000 nM for the second. The first is the more potent here.
